Where two headings read alike, the source gives them in different places.
Experiments:
Format in all cases: cell-based, human
A498 = test system: A498
Experimental: (§1) (aR)-6, (aS)-6, (aS)-iso -6, and (aR)-iso -6 were submitted to the 60 Cell Screen panel and evaluated at 5 doses (100 μM, 10 μM, 1 μM, 0.1 μM, and 0.01 μM). […] The complete report from this submission is available at the publisher’s Web site as a separate Supporting Information file. For COMPARE analysis, TGI levels of response for (aR)-DM-MTC (6) and (aS)-iso-DM-MTC were compared to those of several established tubulin inhibitors previously tested in the NCI-60 screen.

SW-620 = test system: SW-620
Experimental: as §1

OVCAR-4 = test system: OVCAR-4
Experimental: as §1

NCI 60 cell lines = test system: NCI 60 cell lines
Experimental: as §1

T-47D = test system: T-47D
Experimental: as §1

SF-539 = test system: SF-539
Experimental: as §1

MDA-MB-468 = test system: MDA-MB-468
Experimental: as §1

SK-MEL-5 = test system: SK-MEL-5
Experimental: as §1

RXF 393 = test system: RXF 393
Experimental: as §1

HCC-2998 = test system: HCC-2998
Experimental: as §1

OVCAR-8 = test system: OVCAR-8
Experimental: as §1

PC-3 = test system: PC-3
Experimental: as §1

NCI-H226 = test system: NCI-H226
Experimental: as §1

UACC-62 = test system: UACC-62
Experimental: as §1

SR = test system: SR
Experimental: as §1

SNB-75 = test system: SNB-75
Experimental: as §1

EKVX = test system: EKVX
Experimental: as §1

HL-60(TB) = test system: HL-60(TB)
Experimental: as §1

RPMI-8226 = test system: RPMI-8226
Experimental: as §1

MDA-MB-231/ATCC = test system: MDA-MB-231/ATCC
Experimental: as §1

HT29 = test system: HT29
Experimental: as §1

UO-31 = test system: UO-31
Experimental: as §1

IGROV1 = test system: IGROV1
Experimental: as §1

MDA-MB-435 = test system: MDA-MB-435
Experimental: as §1

BT-549 = test system: BT-549
Experimental: as §1

K-562 = test system: K-562
Experimental: as §1

## COc1cc(C)c(-c2ccc(=O)c(OC)cc2C)c(OC)c1OC (single isomer, unassigned) [(aS)-iso-6]
A498
  Log10GI50: -4.85 Molar
  Log10LC50: > -4.00 Molar
  Log10TGI: -4.28 Molar
A498; Homo sapiens
  GI50: 14.1 µM
A498; […]
  Log10GI50: -4.85 Molar
SW-620
  Log10GI50: -4.55 Molar
  Log10LC50: > -4.00 Molar
  Log10TGI: > -4.00 Molar
SW-620; Homo sapiens
  GI50: 30.9 µM
SW-620; […]
  Log10GI50: -4.51 Molar
OVCAR-4
  Log10GI50: -4.04 Molar
  Log10LC50: > -4.00 Molar
  Log10TGI: > -4.00 Molar
OVCAR-4; Homo sapiens
  GI50: 91.2 µM
OVCAR-4; […]
  Log10GI50: -4.04 Molar
NCI 60 cell lines
  fold less potent than (aR)-6 in NCI-60 screen: approximately 10 fold
NCI 60 cell lines; NCI-60, GI50 level
  selectivity range: 1.46 log units
NCI 60 cell lines; NCI-60 cell line selectivity
  Log10 Range at TGI: 0.81
NCI 60 cell lines; NCI-60 mean
  GI50: 27 µM
NCI 60 cell lines; NCI-60 mean total growth inhibition
  Mean TGI: 91 µM
NCI 60 cell lines; mean graph
  Delta Log10GI50: 0.89
  Delta Log10LC50: 0
  Delta Log10TGI: 0.77
  Range Log10GI50: 1.46
  Range Log10LC50: 0.0
  Range Log10TGI: 0.81
NCI 60 cell lines; mean graph midpoint
  _MID Log10GI50: -4.57 Molar
  _MID Log10LC50: -4.0 Molar
  _MID Log10TGI: -4.04 Molar
T-47D
  Log10GI50: -4.58 Molar
  Log10LC50: > -4.00 Molar
  Log10TGI: > -4.00 Molar
T-47D; Homo sapiens, T47D
  GI50: 26.3 µM
T-47D; […]
  Log10GI50: -4.58 Molar
SF-539
  Log10GI50: -4.59 Molar
  Log10LC50: > -4.00 Molar
  Log10TGI: > -4.00 Molar
SF-539; Homo sapiens
  GI50: 29.5 µM
SF-539; […]
  Log10GI50: -4.53 Molar
MDA-MB-468
  Log10GI50: -4.85 Molar
  Log10LC50: > -4.00 Molar
  Log10TGI: > -4.00 Molar
MDA-MB-468; Homo sapiens
  GI50: 14.1 µM
MDA-MB-468; […]
  Log10GI50: -4.85 Molar
SK-MEL-5
  Log10GI50: -4.34 Molar
  Log10LC50: > -4.00 Molar
  Log10TGI: > -4.00 Molar
SK-MEL-5; Homo sapiens
  GI50: 45.7 µM
SK-MEL-5; […]
  Log10GI50: -4.34 Molar
RXF 393
  Log10GI50: -4.68 Molar
  Log10LC50: > -4.00 Molar
  Log10TGI: -4.12 Molar
RXF 393; Homo sapiens
  GI50: 20.9 µM
RXF 393; […]
  Log10GI50: -4.68 Molar
HCC-2998
  Log10GI50: -4.48 Molar
  Log10LC50: > -4.00 Molar
  Log10TGI: > -4.00 Molar
HCC-2998; Homo sapiens
  GI50: 33.1 µM
HCC-2998; […]
  Log10GI50: -4.48 Molar
OVCAR-8
  Log10GI50: -4.45 Molar
  Log10LC50: > -4.00 Molar
  Log10TGI: > -4.00 Molar
OVCAR-8; Homo sapiens
  GI50: 35.5 µM
OVCAR-8; […]
  Log10GI50: -4.45 Molar
PC-3
  Log10GI50: -4.50 Molar
  Log10LC50: > -4.00 Molar
  Log10TGI: > -4.00 Molar
PC-3; Homo sapiens
  GI50: 31.6 µM
PC-3; […]
  Log10GI50: -4.5 Molar
NCI-H226
  Log10GI50: -4.06 Molar
  Log10LC50: > -4.00 Molar
  Log10TGI: > -4.00 Molar
NCI-H226; Homo sapiens
  GI50: 87.1 µM
NCI-H226; […]
  Log10GI50: -4.06 Molar
UACC-62
  Log10GI50: -4.78 Molar
  Log10LC50: > -4.00 Molar
  Log10TGI: > -4.00 Molar
UACC-62; Homo sapiens
  GI50: 16.6 µM
UACC-62; […]
  Log10GI50: -4.78 Molar
SR
  Log10GI50: -5.24 Molar
  Log10LC50: > -4.00 Molar
  Log10TGI: > -4.00 Molar
SR; Homo sapiens
  GI50: 5.75 µM
SR; […]
  Log10GI50: -5.24 Molar
SNB-75
  Log10GI50: -5.27 Molar
  Log10LC50: > -4.00 Molar
  Log10TGI: -4.36 Molar
SNB-75; Homo sapiens
  GI50: 30.9 µM
SNB-75; […]
  Log10GI50: -4.51 Molar
EKVX
  Log10GI50: -4.18 Molar
  Log10LC50: > -4.00 Molar
  Log10TGI: > -4.00 Molar
EKVX; Homo sapiens
  GI50: 66.1 µM
EKVX; […]
  Log10GI50: -4.18 Molar
HL-60(TB)
  Log10GI50: -4.68 Molar
  Log10LC50: > -4.00 Molar
  Log10TGI: -4.02 Molar
HL-60(TB); Homo sapiens
  GI50: 20.9 µM
HL-60(TB); […]
  Log10GI50: -4.68 Molar
RPMI-8226
  Log10GI50: -4.38 Molar
  Log10LC50: > -4.00 Molar
  Log10TGI: > -4.00 Molar
RPMI-8226; Homo sapiens
  GI50: 41.7 µM
RPMI-8226; […]
  Log10GI50: -4.38 Molar
MDA-MB-231/ATCC
  Log10GI50: -4.63 Molar
  Log10LC50: > -4.00 Molar
  Log10TGI: > -4.00 Molar
MDA-MB-231/ATCC; Homo sapiens
  GI50: 23.4 µM
MDA-MB-231/ATCC; […]
  Log10GI50: -4.63 Molar
HT29
  Log10GI50: -4.60 Molar
  Log10LC50: > -4.00 Molar
  Log10TGI: -4.03 Molar
HT29; Homo sapiens, HT-29
  GI50: 25.1 µM
HT29; […]
  Log10GI50: -4.6 Molar
UO-31
  Log10GI50: -4.34 Molar
  Log10LC50: > -4.00 Molar
  Log10TGI: > -4.00 Molar
UO-31; Homo sapiens
  GI50: 45.7 µM
UO-31; […]
  Log10GI50: -4.34 Molar
IGROV1
  Log10GI50: -4.32 Molar
  Log10LC50: > -4.00 Molar
  Log10TGI: > -4.00 Molar
IGROV1; Homo sapiens, IGROV-1
  GI50: 47.9 µM
IGROV1; […]
  Log10GI50: -4.32 Molar
MDA-MB-435
  Log10GI50: -5.46 Molar
  Log10LC50: > -4.00 Molar
  Log10TGI: -4.81 Molar
MDA-MB-435; Homo sapiens
  GI50: 3.47 µM
MDA-MB-435; […]
  Log10GI50: -5.46 Molar
BT-549
  Log10GI50: -4.82 Molar
  Log10LC50: > -4.00 Molar
  Log10TGI: > -4.00 Molar
BT-549; Homo sapiens
  GI50: 15.1 µM
BT-549; […]
  Log10GI50: -4.82 Molar
K-562
  Log10GI50: -5.30 Molar
  Log10LC50: > -4.00 Molar
  Log10TGI: > -4.00 Molar
K-562; Homo sapiens, K562
  GI50: 5.01 µM
K-562; […]
  Log10GI50: -5.3 Molar

From article PMC12150326 (The Journal of Organic Chemistry, 2025)
